# Assay results reported in US11629171B2, “Beta-hairpin peptidomimetics” (POLYPHOR AG, priority 2017, dated 2023).
# Where a SMILES comes first, the peptide text is derived from it. Bridges are numbered along the chain shown (N, C = ends). Roman numbers before positions name the chains, in order. [ ]: non-standard residue; d: D form. NMeDab = CN[C@@H](CCN)C(=O)O; dDab = NCC[C@@H](N)C(=O)O; Dab = NCC[C@H](N)C(=O)O; Abu = CC[C@H](N)C(=O)O; Dap = NC[C@H](N)C(=O)O
# Legend:
# male ICR mice = assay: Tolerability in a mouse model (Maximum Tolerated Dose assay); assay type: in vivo; conditions: groups of 3
# In short: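 Peptides in 0.9% NaCl (pH 6.5-7.6) given s.c. at 30 or 40 mg/kg, twice 12 h apart, to groups of 3 male ICR mice (23±3 g). Acute toxic signs (mortality, convulsions, tremors, sedation) and autonomic effects (diarrhea, salivation, piloerection) observed for 30 min after each dose.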
# Escherichia coli 926415 = assay type: cell-based; conditions: 926415
# In short: (§1)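 CLSI broth microdilution in cation-adjusted Mueller-Hinton II broth with 0.002% polysorbate 80 (final), inoculum appr. 10^6 CFU/mL, peptides in serial two-fold dilutions. MIC (μg/mL) is the lowest concentration without visible growth after 18-20 h at 35° C.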
# [1] = tested on: Acinetobacter baumannii 872842; assay type: cell-based; conditions: 872842
# In short: as §1
# [2] = tested on: Pseudomonas aeruginosa ATCC 27853; assay type: cell-based; conditions: ATCC 27853
# In short: as §1
# [3] = tested on: Klebsiella pneumoniae 968733; assay type: cell-based; conditions: 968733
# In short: as §1
# [4] = tested on: Acinetobacter baumannii DSM 30008; assay type: cell-based; conditions: DSM 30008
# In short: as §1
# [5] = tested on: Klebsiella pneumoniae SSI #3010; assay type: cell-based; conditions: SSI #3010
# In short: as §1
# [6] = tested on: Enterobacter cloacae 848840; assay type: cell-based; conditions: 848840
# In short: as §1
# [7] = tested on: Escherichia coli ATCC 25922; assay type: cell-based; conditions: ATCC 25922
# In short: as §1
# [8] = tested on: human red blood cells (hRBC); assay: Hemolysis; assay type: cell-based; conditions: red cells of human, 1 h, 200
# In short: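 Read-out is supernatant absorbance at 540 nm, normalised to full lysis by 2% Triton X-100 and zero lysis by PBS with 10% water. Peptides (200 μg/mL) were exposed to 20% v/v washed human erythrocytes at 37° C for 1 h under shaking.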
# [9] = 2 × 30 mg/kg s.c. at a 12-hr interval
# [10] = 2 × 40 mg/kg s.c. at a 12-hr interval
Compound,Mortality and dose (male ICR mice; [9]),MIC (Escherichia coli 926415) [µg/mL],MIC [1] [µg/mL],MIC [2] [µg/mL],MIC [3] [µg/mL],MIC [4] [µg/mL],MIC [5] [µg/mL],MIC [6] [µg/mL],MIC [7] [µg/mL],Hemolysis at 200 μg/mL [8] [%],Mortality and dose (male ICR mice; [10]),Pseudomonas aeruginosa ATCC 27853 MIC [2] [µg/mL],Acinetobacter baumannii DSM 30008 MIC [4] [µg/mL],Klebsiella pneumoniae SSI #3010 MIC [5] [µg/mL],Escherichia coli ATCC 25922 MIC [7] [µg/mL]
CC[C@@H]1NC(=O)[C@@H](CC(C)C)NC(=O)[C@H](CCN)NC(=O)[C@@H](NC(=O)[C@H](CN)NC(=O)[C@@H](NC(=O)[C@H](CCN)NC(=O)CC[C@@H]2NC(=O)[C@H](CO)NC(=O)[C@H](Cc3ccc(O)cc3)NC(=O)[C@@H](NC(=O)[C@@H](NC(C)=O)C(C)C)CSSC[C@@H](C(=O)N[C@@H](CO)C(N)=O)NC(=O)[C@H]([C@@H](C)CC)NC(=O)[C@H](CO)NC(=O)[C@H](Cc3c[nH]c4ccccc34)NC(=O)[C@H](CCN)NC(=O)[C@@H](CCN)NC2=O)[C@@H](C)O)CCNC(=O)[C@H]([C@@H](C)O)NC(=O)[C@H](CCN)NC(=O)[C@H](CCN)NC1=O [Ex. 257] (I: Ac-VCYSE[dDab][Dab]WSICS-NH2 / II: [Dab]T[Dap][Dab][Dab][dL][Abu][Dab][Dab]T; disulfide I:2-I:11; amide I:5-II:N; lactam II:4-II:C),0/3 died at 2 × 30 mg/kg,0.0625,0.03125,0.0625,0.125,0.03125,0.03125,0.0625,0.03125,1,,,,,
CC(=O)N[C@H](C(=O)N[C@H]1CSSC[C@@H](C(=O)N[C@@H](CO)C(N)=O)NC(=O)[C@H](C(C)C)NC(=O)[C@H](CO)NC(=O)[C@H](Cc2c[nH]c3ccccc23)NC(=O)[C@H](CCN)NC(=O)CNC(=O)[C@H](CCC(=O)N[C@@H](CCN)C(=O)N[C@H](C(=O)N[C@@H](CN)C(=O)N[C@H]2CCNC(=O)[C@H]([C@@H](C)O)NC(=O)[C@H](CCN)NC(=O)[C@H](CCN)NC(=O)[C@H](CC(C)C)NC(=O)[C@@H](CC(C)C)NC(=O)[C@H](CCN)NC2=O)[C@@H](C)O)NC(=O)[C@H](CCN)NC(=O)[C@H](Cc2ccc(O)cc2)NC1=O)C(C)C [Ex. 345] (I: Ac-VCY[Dab]EG[Dab]WSVCS-NH2 / II: [Dab]T[Dap][Dab][Dab][dL]L[Dab][Dab]T; disulfide I:2-I:11; amide I:5-II:N; lactam II:4-II:C),,0.125,0.125,,0.25,,,0.125,,<1,0/3 died at 2 × 40 mg/kg,0.125,0.0625,0.0625,0.0625
CC[C@@H]1NC(=O)[C@@H](CC(C)C)NC(=O)[C@H](CCN)NC(=O)[C@@H](NC(=O)[C@H](CN)NC(=O)[C@@H](NC(=O)[C@H](CCN)NC(=O)CC[C@@H]2NC(=O)[C@H]([C@@H](C)O)NC(=O)[C@H](Cc3ccc(O)cc3)NC(=O)[C@@H](NC(=O)[C@@H](NC(C)=O)C(C)C)CSSC[C@@H](C(=O)N[C@@H](CO)C(N)=O)NC(=O)[C@H]([C@@H](C)CC)NC(=O)[C@H](CO)NC(=O)[C@H](Cc3c[nH]c4ccccc34)NC(=O)[C@H](CCN)NC(=O)[C@@H](CCN)NC2=O)[C@@H](C)O)CCNC(=O)[C@H]([C@@H](C)O)NC(=O)[C@H](CCN)NC(=O)[C@H](CCN)NC1=O [Ex. 258] (I: Ac-VCYTE[dDab][Dab]WSICS-NH2 / II: [Dab]T[Dap][Dab][Dab][dL][Abu][Dab][Dab]T; disulfide I:2-I:11; amide I:5-II:N; lactam II:4-II:C),0/3 died at 2 × 30 mg/kg,0.25,0.03125,0.0625,0.125,0.03125,0.03125,0.0625,0.0625,2,,,,,
CC(=O)N[C@H](C(=O)N[C@H]1CSSC[C@@H](C(=O)N[C@@H](CO)C(N)=O)NC(=O)[C@H](C(C)C)NC(=O)CNC(=O)[C@H](Cc2c[nH]c3ccccc23)NC(=O)[C@H](CO)NC(=O)[C@@H](CCN)NC(=O)[C@H](CCC(=O)N[C@@H](CCN)C(=O)N[C@H](C(=O)N[C@@H](CN)C(=O)N[C@H]2CCNC(=O)[C@H]([C@@H](C)O)NC(=O)[C@H](CCN)NC(=O)[C@H](CCN)NC(=O)[C@H](CC(C)C)NC(=O)[C@@H](CC(C)C)NC(=O)[C@H](CCN)NC2=O)[C@@H](C)O)NC(=O)[C@H](CCN)NC(=O)[C@H](Cc2ccc(O)cc2)NC1=O)C(C)C [Ex. 335] (I: Ac-VCY[Dab]E[dDab]SWGVCS-NH2 / II: [Dab]T[Dap][Dab][Dab][dL]L[Dab][Dab]T; disulfide I:2-I:11; amide I:5-II:N; lactam II:4-II:C),,0.25,0.25,,0.5,,,0.25,,<1,0/3 died at 2 × 40 mg/kg,0.125,0.0625,0.0625,0.0625
CC[C@@H]1NC(=O)[C@@H](CC(C)C)NC(=O)[C@H](CCN)NC(=O)[C@@H](NC(=O)[C@H](CN)NC(=O)[C@@H](NC(=O)[C@H](CCN)NC(=O)CC[C@@H]2NC(=O)[C@H](CCN)NC(=O)[C@H](Cc3ccc(O)cc3)NC(=O)[C@@H](NC(=O)[C@@H](NC(C)=O)C(C)C)CSSC[C@@H](C(=O)N[C@@H](CO)C(N)=O)NC(=O)[C@H](C(C)C)NC(=O)[C@H](CO)NC(=O)[C@H](Cc3c[nH]c4ccccc34)NC(=O)[C@H](CO)NC(=O)[C@@H](CCN)NC2=O)[C@@H](C)O)CCNC(=O)[C@H]([C@@H](C)O)NC(=O)[C@H](CCN)NC(=O)[C@H](CCN)NC1=O [Ex. 137] (I: Ac-VCY[Dab]E[dDab]SWSVCS-NH2 / II: [Dab]T[Dap][Dab][Dab][dL][Abu][Dab][Dab]T; disulfide I:2-I:11; amide I:5-II:N; lactam II:4-II:C),0/3 died at 2 × 30 mg/kg,0.125,0.125,0.125,0.125,0.0625,0.0625,0.0625,0.03125,1,,,,,
CC(=O)N[C@H](C(=O)N[C@H]1CSSC[C@@H](C(=O)N[C@@H](CO)C(N)=O)NC(=O)[C@H](C(C)C)NC(=O)[C@H](CO)NC(=O)[C@H](Cc2c[nH]c3ccccc23)NC(=O)[C@H](CO)NC(=O)[C@@H](CCN)NC(=O)[C@H](CCC(=O)N(C)[C@@H](CCN)C(=O)N[C@H](C(=O)N[C@@H](CN)C(=O)N[C@H]2CCNC(=O)[C@H]([C@@H](C)O)NC(=O)[C@H](CCN)NC(=O)[C@H](CCN)NC(=O)[C@H](CC(C)C)NC(=O)[C@@H](CC(C)C)NC(=O)[C@H](CCN)NC2=O)[C@@H](C)O)NC(=O)[C@H](CCN)NC(=O)[C@H](Cc2ccc(O)cc2)NC1=O)C(C)C [Ex. 311] (I: Ac-VCY[Dab]E[dDab]SWSVCS-NH2 / II: [NMeDab]T[Dap][Dab][Dab][dL]L[Dab][Dab]T; disulfide I:2-I:11; amide I:5-II:N; lactam II:4-II:C),,0.25,0.125,,0.125,,,0.125,,<1,0/3 died at 2 × 40 mg/kg,0.25,0.0625,0.0625,0.0625
CC[C@@H]1NC(=O)[C@@H](CC(C)C)NC(=O)[C@H](CCN)NC(=O)[C@@H](NC(=O)[C@H](CN)NC(=O)[C@@H](NC(=O)[C@H](CCN)NC(=O)CC[C@@H]2NC(=O)[C@H](CCN)NC(=O)[C@H](Cc3ccc(O)cc3)NC(=O)[C@@H](NC(=O)[C@@H](NC(C)=O)C(C)C)CSSC[C@@H](C(=O)N[C@@H](CO)C(N)=O)NC(=O)[C@H]([C@@H](C)CC)NC(=O)[C@H](CO)NC(=O)[C@H](Cc3c[nH]c4ccccc34)NC(=O)[C@H](CO)NC(=O)[C@@H](CCN)NC2=O)[C@@H](C)O)CCNC(=O)[C@H]([C@@H](C)O)NC(=O)[C@H](CCN)NC(=O)[C@H](CCN)NC1=O [Ex. 338] (I: Ac-VCY[Dab]E[dDab]SWSICS-NH2 / II: [Dab]T[Dap][Dab][Dab][dL][Abu][Dab][Dab]T; disulfide I:2-I:11; amide I:5-II:N; lactam II:4-II:C),,0.0625,0.0625,,0.125,,,0.0625,,<1,0/3 died at 2 × 40 mg/kg,0.125,0.03125,0.03125,0.03125
